Results reported in ChEMBL document CHEMBL6127009, “Discovery of L15 as a novel Vif PROTAC degrader with antiviral activity against HIV-1” (Bioorg Med Chem Lett, 2024).
Counter-ions that a name gives are not always drawn.

What was measured:
[1] = Cytotoxicity against human TZM-bl cells; assay type: toxicity, cell-based
[2] = test system: Human immunodeficiency virus 1; experiment: Antiviral activity against HIV-1 IIIB infected in TZM-bl cells; assay type: functional, organism-based; conditions: Human immunodeficiency virus 1, IIIB
[3] = Therapeutic index, ratio of CC50 for human TZM-bl cells to EC50 for HIV IIIB infected in TZM-bl cells; assay type: toxicity, cell-based; conditions: read-out: Ratio CC50/EC50

SMILES	CC50 [1] [µM]	EC50 [2] [µM]	selectivity ratio [3]
COc1ccc(OCC(=O)NCCOCCNCC(=O)Nc2cccc3c2C(=O)N(C2CCC(=O)NC2=O)C3=O)cc1NC(=O)c1c(N)cccc1Sc1ccc([N+](=O)[O-])cc1 (stereo not given)	> 200	> 100	–
COc1ccc(OCC(=O)NCCOCCOCCNCC(=O)Nc2cccc3c2C(=O)N(C2CCC(=O)NC2=O)C3=O)cc1NC(=O)c1c(N)cccc1Sc1ccc([N+](=O)[O-])cc1 (stereo not given)	> 200	53.1	> 3.77
COc1ccc(OCC(=O)NCCOCCOCCOCCNc2cccc3c2C(=O)N(C2CCC(=O)NC2=O)C3=O)cc1NC(=O)c1c(N)cccc1S(=O)(=O)c1ccc([N+](=O)[O-])cc1 (stereo not given)	> 200	> 100	–
COc1ccc(OCC(=O)NCCCCCCNCC(=O)Nc2cccc3c2C(=O)N(C2CCC(=O)NC2=O)C3=O)cc1NC(=O)c1c(N)cccc1S(=O)(=O)c1ccc([N+](=O)[O-])cc1 (stereo not given)	> 200	> 100	–
COc1ccc(OCC(=O)NCCOCCOCCNCC(=O)Nc2cccc3c2C(=O)N(C2CCC(=O)NC2=O)C3=O)cc1NC(=O)c1c(N)cccc1S(=O)(=O)c1ccc([N+](=O)[O-])cc1 (stereo not given)	> 200	66.9	> 2.99
COc1ccc(OCC(=O)NCCOCCNc2cccc3c2C(=O)N(C2CCC(=O)NC2=O)C3=O)cc1NC(=O)c1c(N)cccc1S(=O)(=O)c1ccc([N+](=O)[O-])cc1 (stereo not given)	> 200	> 100	–
COc1ccc(OCC(=O)NCCCCCCCCCCNCC(=O)Nc2cccc3c2C(=O)N(C2CCC(=O)NC2=O)C3=O)cc1NC(=O)c1c(N)cccc1Sc1ccc([N+](=O)[O-])cc1 (stereo not given)	> 200	> 100	–
COc1ccc(OCC(=O)NCCOCCOCCOCCNCC(=O)Nc2cccc3c2C(=O)N(C2CCC(=O)NC2=O)C3=O)cc1NC(=O)c1c(N)cccc1S(=O)(=O)c1ccc([N+](=O)[O-])cc1 (stereo not given)	> 200	21.3	> 9.39
COc1ccc(OCC(=O)NCCCCNc2cccc3c2C(=O)N(C2CCC(=O)NC2=O)C3=O)cc1NC(=O)c1c(N)cccc1Sc1ccc([N+](=O)[O-])cc1 (stereo not given)	> 200	34.8	> 5.76
COc1ccc(OCC(=O)NCCOCCNc2cccc3c2C(=O)N(C2CCC(=O)NC2=O)C3=O)cc1NC(=O)c1c(N)cccc1Sc1ccc([N+](=O)[O-])cc1 (stereo not given)	> 200	> 100	–
CC(C)OC(=O)OCOP(=O)(CO[C@H](C)Cn1cnc2c(N)ncnc21)OCOC(=O)OC(C)C [TENOFOVIR DISOPROXIL FUMARATE]	> 200	0.005	> 43800
COc1ccc(OCC(=O)NCCCCNCC(=O)Nc2cccc3c2C(=O)N(C2CCC(=O)NC2=O)C3=O)cc1NC(=O)c1c(N)cccc1S(=O)(=O)c1ccc([N+](=O)[O-])cc1 (stereo not given)	> 200	> 100	–
COc1ccc(OCC(=O)NCCNc2cccc3c2C(=O)N(C2CCC(=O)NC2=O)C3=O)cc1NC(=O)c1c(N)cccc1Sc1ccc([N+](=O)[O-])cc1 (stereo not given)	> 200	> 100	–
COc1ccc(OCC(=O)NCCCCCCCCNc2cccc3c2C(=O)N(C2CCC(=O)NC2=O)C3=O)cc1NC(=O)c1c(N)cccc1S(=O)(=O)c1ccc([N+](=O)[O-])cc1 (stereo not given)	> 200	> 100	–
COc1ccc(OCC(=O)NCCCCCCNCC(=O)Nc2cccc3c2C(=O)N(C2CCC(=O)NC2=O)C3=O)cc1NC(=O)c1c(N)cccc1Sc1ccc([N+](=O)[O-])cc1 (stereo not given)	> 200	> 100	–
COc1ccc(OCC(=O)NCCCCCCCCNCC(=O)Nc2cccc3c2C(=O)N(C2CCC(=O)NC2=O)C3=O)cc1NC(=O)c1c(N)cccc1Sc1ccc([N+](=O)[O-])cc1 (stereo not given)	> 200	> 100	–

SMILES	CC50 [1] [µM]	EC50 [2] [µM]	selectivity ratio [3]
COc1ccc(OCC(=O)NCCCCCCNc2cccc3c2C(=O)N(C2CCC(=O)NC2=O)C3=O)cc1NC(=O)c1c(N)cccc1S(=O)(=O)c1ccc([N+](=O)[O-])cc1 (stereo not given)	> 200	> 100	–
COc1ccc(OCC(=O)NCCCCCCCCCCNCC(=O)Nc2cccc3c2C(=O)N(C2CCC(=O)NC2=O)C3=O)cc1NC(=O)c1c(N)cccc1S(=O)(=O)c1ccc([N+](=O)[O-])cc1 (stereo not given)	> 200	29	> 6.9
COc1ccc(OCC(=O)NCCNc2cccc3c2C(=O)N(C2CCC(=O)NC2=O)C3=O)cc1NC(=O)c1c(N)cccc1S(=O)(=O)c1ccc([N+](=O)[O-])cc1 (stereo not given)	> 200	> 100	–
COc1ccc(OCC(=O)NCCOCCNCC(=O)Nc2cccc3c2C(=O)N(C2CCC(=O)NC2=O)C3=O)cc1NC(=O)c1c(N)cccc1S(=O)(=O)c1ccc([N+](=O)[O-])cc1 (stereo not given)	> 200	> 100	–
COc1ccc(OCC(=O)NCCCCCCCCNc2cccc3c2C(=O)N(C2CCC(=O)NC2=O)C3=O)cc1NC(=O)c1c(N)cccc1Sc1ccc([N+](=O)[O-])cc1 (stereo not given)	> 200	> 100	–
COc1ccc(OCC(=O)NCCCCNc2cccc3c2C(=O)N(C2CCC(=O)NC2=O)C3=O)cc1NC(=O)c1c(N)cccc1S(=O)(=O)c1ccc([N+](=O)[O-])cc1 (stereo not given)	> 200	> 100	–
COc1ccc(OCC(=O)NCCNCC(=O)Nc2cccc3c2C(=O)N(C2CCC(=O)NC2=O)C3=O)cc1NC(=O)c1c(N)cccc1S(=O)(=O)c1ccc([N+](=O)[O-])cc1 (stereo not given)	> 200	> 100	–
COc1ccc(OCC(=O)NCCOCCOCCOCCNCC(=O)Nc2cccc3c2C(=O)N(C2CCC(=O)NC2=O)C3=O)cc1NC(=O)c1c(N)cccc1Sc1ccc([N+](=O)[O-])cc1 (stereo not given)	> 200	> 100	–
COc1ccc(OCC(=O)NCCCCNCC(=O)Nc2cccc3c2C(=O)N(C2CCC(=O)NC2=O)C3=O)cc1NC(=O)c1c(N)cccc1Sc1ccc([N+](=O)[O-])cc1 (stereo not given)	> 200	> 100	–
COc1ccc(OCC(=O)NCCNCC(=O)Nc2cccc3c2C(=O)N(C2CCC(=O)NC2=O)C3=O)cc1NC(=O)c1c(N)cccc1Sc1ccc([N+](=O)[O-])cc1 (stereo not given)	> 200	> 100	–
COc1ccc(OCC(=O)NCCCCCCCCCCNc2cccc3c2C(=O)N(C2CCC(=O)NC2=O)C3=O)cc1NC(=O)c1c(N)cccc1Sc1ccc([N+](=O)[O-])cc1 (stereo not given)	> 200	> 100	–
COc1ccc(OCC(=O)NCCCCCCCCNCC(=O)Nc2cccc3c2C(=O)N(C2CCC(=O)NC2=O)C3=O)cc1NC(=O)c1c(N)cccc1S(=O)(=O)c1ccc([N+](=O)[O-])cc1 (stereo not given)	> 200	> 100	–
COc1ccc(OCC(=O)NCCOCCOCCNc2cccc3c2C(=O)N(C2CCC(=O)NC2=O)C3=O)cc1NC(=O)c1c(N)cccc1S(=O)(=O)c1ccc([N+](=O)[O-])cc1 (stereo not given)	> 200	> 100	–
COc1ccc(OCC(=O)NCCOCCOCCOCCNc2cccc3c2C(=O)N(C2CCC(=O)NC2=O)C3=O)cc1NC(=O)c1c(N)cccc1Sc1ccc([N+](=O)[O-])cc1 (stereo not given)	> 200	> 100	–
COc1ccc(OCC(=O)NCCCCCCNc2cccc3c2C(=O)N(C2CCC(=O)NC2=O)C3=O)cc1NC(=O)c1c(N)cccc1Sc1ccc([N+](=O)[O-])cc1 (stereo not given)	> 200	> 100	–
COc1ccc(OCC(=O)NCCCCCCCCCCNc2cccc3c2C(=O)N(C2CCC(=O)NC2=O)C3=O)cc1NC(=O)c1c(N)cccc1S(=O)(=O)c1ccc([N+](=O)[O-])cc1 (stereo not given)	> 200	> 100	–
